Measured values published in paper PMC3454376, “Salidroside Improves Behavioral and Histological Outcomes and Reduces Apoptosis via PI3K/Akt Signaling after Experimental Traumatic Brain Injury” (PLoS ONE, 2012).

Tested on: mice subjected to controlled cortical impact injury
Assay: TUNEL staining of apoptotic cells
Format: in vivo
Details: 20 mg/kg ip 10 min after CCI; day 1; vehicle 57.8±6.4%; P<0.01
Procedure: All animal procedures were approved by the Animal Research Committee at Cheng Hsin General Hospital (Animal permit number […] 101-08), and all procedures complied with the Guide for the Care and Use of Laboratory Animals published by the US National Institutes of Health (NIH Publication No. 85-23, revised 1996). Animals were housed under a 12-h light/dark cycle and at constant temperature (21-25°C) and humidity (45-50%). They were allowed free access to pellet chow and water. TBI in mice was induced by a CCI injury model as previously described. Briefly, 8-week-old male C57BL/6 mice (weighing 22-25 g) were anesthetized through the use of intraperitoneal injection of sodium pentobarbital (65 mg/kg; Rhone Merieux, Harlow, UK) and placed in a stereotaxic frame. A 5 mm craniotomy was performed over the right parietal cortex, centered on the coronal suture and 0.1 mm lateral to the sagittal suture, and injury to dura was avoided. […] Body temperature was monitored throughout the surgery by a rectal probe; temperature was maintained at 37.0±0.5°C using a heated pad. […] To determine the optimal dose of salidroside, a pilot study was performed using 2 different doses (20 and 50 mg/kg) administered 10 min after injury, and neurological deficits and tissue damage were evaluated as the main outcomes. […]

## OC[C@H]1O[C@@H](OCCc2ccc(O)cc2)[C@H](O)[C@@H](O)[C@@H]1O [SALD, salidroside]
  TUNEL-positive cells (TUNEL-stained nuclei/DAPI-stained nuclei): 31.0±6.4%
